# Results as given in patent EP0639380B1, “Cyclodextrin inclusion product of taxol, process for producing the same, and its use” (Ensuiko Sugar Refining Company, Limited, priority 1993, dated 1995).
# Read-outs that look alike come from different tables or passages of the source.
# Assays:
# [1] = 70 min
# Method: 098 g of hydroxyethyl-β-CD in which, of 21 hydroxyl groups contained in one β -CD molecule, an average of 1.6 groups are substituted through an ether bond with a hydroxyethyl group (hereinafter referred to as HE-β-CD) or 0.090 g of hydroxypropyl-β-CD in which, of 21 hydroxyl groups contained in one β -CD molecule, an average of 0.9 groups are substituted through an ether bond with a hydroxypropyl group (hereinafter referred to as HP-β -CD), and the volume of each solution was adjusted to 10 ml to prepare aqueous CD solutions of a concentration of 6 mM.
# To the solutions were added 2 mg each of taxol, and the resulting mixtures were stirred at room temperature (20 to 25°C) at 5,000 r.p.m. As a control, 2 mg of taxol were added to 10 ml of water, and the resulting mixture was stirred at room temperature (20 to 25°C) at 5,000 r.p.m. After 70 minutes of stirring, the solutions were passed through a filter of a pore diameter of 0. 45µm, and the concentration of taxol contained in the filtrates was determined by highperformance liquid chromatography (HPLC).
# Then, 20 mg of taxol were added to the aqueous DM-β-CD solution, 2 mgof taxol to the aqueous HP-β-CD solution, and 1 mg each of taxol to the other aqueous CD solutions, and the resulting mixtures were stirred at room temperature (20 to 25°C) at 5,000 r.p.m. As a control, 1 mg of taxol was added to 10 ml of water, and the resulting mixture was stirred at room temperature (20 to 25°C) at 5,000 r.p.m. After 70 minutes of stirring, the solutions were passed through a filter with a pore diameter of 0.45µm, and the concentration of taxol contained in the filtrates was determined.
# [2] = type: physicochemical
# Method: Into 70 ml of a mixture of methanol and water (volume ratio, 1:1), the same volume of a mixture of acetonitrile and water (volume ratio, 1: 1), the same volume of a mixture of acetone and water (volume ratio, 1: 1) and the same volume of mixture of tetrahydrofuran and water (volume ratio, 1:1) were added 5 mg each of taxol. To the resulting taxol solutions were added 500 mg each of DM-β-CD, and the resulting mixtures were stirred vigorously by a stirrer at a temperature of 25°C. After two hours of stirring, 100 ml each of water were added thereto, and the resulting solutions were freeze-dried, so as to obtain powders by completely removing the water and the organic solvents. Then, 8 mg each of the thus-obtained powders were dissolved into 1 ml of water while stirring, and the resulting solutions were passed through a filter with a pore size of 0. 45µm, and the concentration of DM-β-CD and of the taxol contained in the filtrates was determined by HPLC. […]
# Two taxol solutions were prepared by dissolving 5 mg each of taxol into 100 ml each of mixtures of methanol and water (volume ratio, 1:1). To these solutions were added 50 mg of HE-β-CD or HP-β-CD, and the resulting mixtures were vigorously stirred using a stirrer at 25°C. […]
compound,measurement,setting,value
"2, 6-di-O-methyl- β -CD [DM-β-CD]",Solubility of Taxol,[1],47.1 µ g/ml
same,Solubilty of Taxol,[1],1236 µ g/ml
6-mono-O-maltosyl-β-CD [G2-β-CD],Solubility of Taxol,[1],0.5 µ g/ml
same,Solubilty of Taxol,[1],23.0 µ g/ml
"CC(=O)O[C@H]1C(=O)[C@@]2(C)[C@H]([C@H](OC(=O)c3ccccc3)[C@]3(O)C[C@H](OC(=O)[C@H](O)[C@@H](NC(=O)c4ccccc4)c4ccccc4)C(C)=C1C3(C)C)[C@]1(OC(C)=O)CO[C@@H]1C[C@@H]2O [CD not added (Control), taxol]",Solubility of Taxol,[1],0 µ g/ml
hydroxyethyl-β-CD [HE-β-CD],Solubility of Taxol,[2],1.3 µ g/ml
same,Solubility of Taxol,[1],0.5 µ g/ml
same,Solubilty of Taxol,[1],22.2 µ g/ml
hydroxypropyl-β-CD [HP-β-CD],Solubility of Taxol,[2],6.1 µ g/ml
same,Solubility of Taxol,[1],1.1 µ g/ml
same,Solubilty of Taxol,[1],68.9 µ g/ml
